Measurements: ChEMBL document CHEMBL3826947, “New 4-Acyl-1-phenylaminocarbonyl-2-phenylpiperazine Derivatives as Potential Inhibitors of Adenovirus Infection. Synthesis, Biological Evaluation, and Structure-activity Relationships” (J Med Chem, 2016)
Active and inactive are the calls of the source. The rule behind the calls is not given here.

Key:
[1] = Cytotoxicity against human A549 cells assessed as cell viability after 48 hrs by Alamar blue assay; assay type: cell-based
Human adenovirus 5 [2] = test: Antiviral activity against HAdV5 infected in 293beta5 cells assessed as inhibition of plaque formation at 10 uM after 7 days by GFP reporter gene assay relative to control; assay type: functional; settings: Human mastadenovirus C, 293beta5, 168 h
Human adenovirus 5 [3] = test: Antiviral activity against HAdV5 infected in human A549 cells assessed as inhibition of viral genome entry in nucleus by measuring nuclear associated viral DNA level at 50 uM after 45 mins by real time PCR method (reference value: 78.55 +/- 1.37%); assay type: functional; set-up: scale not given: the % may be the effect or the level left
Human adenovirus 5 [4] = test: Antiviral activity against HAdV5 infected in human A549 cells assessed as inhibition of viral DNA replication at 50 uM after 24 hrs by quantitative real time PCR method relative to control; assay type: functional; settings: Human mastadenovirus C, A549, 24 h
Human adenovirus 5 [5] = test: Antiviral activity against HAdV5 infected in human A549 cells assessed as reduction in viral yield at 50 uM after 48 hrs by virus burst size assay relative to control; assay type: functional
Human adenovirus 5 [6] = test: Antiviral activity against HAdV5 infected in human A549 cells assessed as inhibition of viral entry preincubated for 45 mins followed by cell addition measured after 48 hrs by GFP reporter gene assay; assay type: functional, organism-based; settings: for IC50: Human mastadenovirus C
Human adenovirus 5 [7] = test: Antiviral activity against HAdV5 infected in human A549 cells assessed as inhibition of viral entry at 50 uM preincubated for 45 mins followed by cell addition measured after 48 hrs by GFP reporter gene assay relative to control; assay type: functional; settings: Human mastadenovirus C
[8] = Antiviral activity against HAdV16 infected in human A549 cells assessed as reduction in viral yield at 50 uM after 48 hrs by virus burst size assay relative to control; assay type: functional, Human adenovirus 16
[9] = Selectivity index, ratio of CC50 for human A549 cells to IC50 for inhibition of HAdV5 plaque formation in 293beta5 cells; assay type: functional
Human adenovirus 5 [10] = test: Antiviral activity against HAdV5 infected in 293beta5 cells assessed as inhibition of plaque formation after 7 days by GFP reporter gene assay; assay type: functional, organism-based; settings: for IC50: Human mastadenovirus C, 293beta5, 168 h
[11] = Antiviral activity against HAdV16 infected in 293beta5 cells assessed as inhibition of plaque formation after 7 days by GFP reporter gene assay; assay type: functional, cell-based, Human adenovirus 16; settings: Human mastadenovirus B, 293beta5, 168 h
A549 = test: Effect on GAPDH gene expression in human A549 cells at 50 uM after 24 hrs by quantitative real time PCR method; assay type: ADME, cell-based; settings: a549, 24 h
[12] = Selectivity index, ratio of CC50 for human A549 cells to IC50 for inhibition of HAdV16 plaque formation in 293beta5 cells; assay type: functional
Human adenovirus 5 [13] = test: Antiviral activity against HAdV5 assessed as inhibition of E1A mRNA transcription measured 6 hrs post infection; assay type: functional, organism-based

CC(C)(C)OC(=O)N1CCN(C(=O)Nc2ccc([N+](=O)[O-])cc2)C(c2ccccc2)C1 (configuration not stated)
CC50 at 48 h [1]: 161 µM | inhibition at 10 µM (Human adenovirus 5 [2]): 96% | Activity (Human adenovirus 5 [3]): 77.96% | inhibition at 50 µM (Human adenovirus 5 [4]): 80.7% | fold change (FC) (Human adenovirus 5 [5]): 211.7 | inhibition (Human adenovirus 5 [6]): Dose-dependent effect | IC50 (Human adenovirus 5 [6]): 32.5 µM | inhibition at 50 µM (Human adenovirus 5 [7]): 80% | fold change (FC) [8]: 265.5 | Ratio CC50/IC50 [9]: 47.3 | inhibition (Human adenovirus 5 [10]): Dose-dependent effect | IC50 (Human adenovirus 5 [10]): 3.4 µM | IC50 [11]: 4.8 µM | Activity (A549): Non-toxic | Ratio CC50/IC50 [12]: 33.6

O=C(c1cc2ccccc2o1)N1CCN(C(=O)Nc2cc(C(F)(F)F)ccc2Cl)C(c2ccccc2)C1 (configuration not stated)
CC50 at 48 h [1]: 131 µM | inhibition at 10 µM (Human adenovirus 5 [2]): 97% | Activity (Human adenovirus 5 [3]): 85% | fold change (FC) (Human adenovirus 5 [5]): 60.3 | inhibition at 50 µM (Human adenovirus 5 [7]): 30% | fold change (FC) [8]: 33.2 | Ratio CC50/IC50 [9]: 116.2 | inhibition (Human adenovirus 5 [10]): Dose-dependent effect | IC50 (Human adenovirus 5 [10]): 1.1 µM | inhibition (Human adenovirus 5 [13]): inactive | IC50 [11]: 1.8 µM | Ratio CC50/IC50 [12]: 72.7

O=C(c1cc2ccccc2o1)N1CCN(C(=O)Nc2ccc([N+](=O)[O-])cc2)C(c2ccccc2)C1 (configuration not stated)
CC50 at 48 h [1]: 194 µM | inhibition at 10 µM (Human adenovirus 5 [2]): 100% | Activity (Human adenovirus 5 [3]): 77.99% | inhibition at 50 µM (Human adenovirus 5 [4]): 80.9% | fold change (FC) (Human adenovirus 5 [5]): 35.7 | inhibition (Human adenovirus 5 [6]): Dose-dependent effect | IC50 (Human adenovirus 5 [6]): 26.7 µM | inhibition at 50 µM (Human adenovirus 5 [7]): 84% | fold change (FC) [8]: 34.6 | Ratio CC50/IC50 [9]: 93.5 | inhibition (Human adenovirus 5 [10]): Dose-dependent effect | IC50 (Human adenovirus 5 [10]): 2.1 µM | IC50 [11]: 3.5 µM | Activity (A549): Non-toxic | Ratio CC50/IC50 [12]: 55.4
